Test results taken from paper PMC6768028, “Synthesis, SAR and in vitro therapeutic potentials of thiazolidine-2,4-diones” (Chemistry Central Journal, 2018).
Converted amounts (≈) assume the structure as drawn. Like-named read-outs stand apart in the source and are kept apart here.

Experiments:
[1] = tested on: α-amylase enzyme (diastase); experiment: Antidiabetic activity: α-amylase inhibitory activity using diastase, colorimetric method; format: biochemical; settings: for IC50 (antidiabetic activity, α-amylase): calculated via graph of % inhibition
Procedure: All the synthesized compounds were evaluated against α-amylase inhibitory activity by using diastase based on colorimetric method. 0.25 g of soluble potato starch was dissolved in 50 ml of 20 mM phosphate buffer by heating for 15 min. 1 mg diastase (amylase enzyme) was mixed in 100 ml of 20 mM phosphate buffer (pH 6.9) to obtain the enzyme solution. Different concentrations of all the synthesized derivatives were prepared by dissolving them in DMSO. […] 1 ml of enzyme solution was mixed with 1 ml of each synthesized derivatives and incubated for 10 min at 25 °C. Then 1 ml of this mixture was mixed with 1 ml of soluble potato starch solution in a tube and incubated for 10 min at 25 °C. Then tubes were closed after adding 1 ml of color reagent and placed into water bath for 15 min at 85 °C. The reaction mixture was removed from water bath after 15 min. After cooling, the reaction mixture was diluted with 9 ml of distilled water and the absorbance was taken at 540 nm in UV spectrophotometer. Blank solution was prepared by replacing the enzyme solution with buffer solution and absorbance was taken. Measurement of control was performed in identical manner by replacing the synthesized derivatives in 1 ml of DMSO.
Percentage inhibition of α-amylase enzyme was calculated by using following formula:1 %Inhibition=ABlank-ASample/ABlank×100

[2] = Antioxidant activity: free radical scavenging method by DPPH assay; settings: for % inhibition (DPPH), 25 μg/ml / % inhibition (DPPH), 50 μg/ml / % inhibition (DPPH), 75 μg/ml / % inhibition (DPPH), 100 μg/ml: 30 min, 517 nm; for IC50 (antioxidant activity, DPPH): calculated via graph of % inhibition
Procedure: The antioxidant activity of the newly synthesized compounds were evaluated spectrophotometrically using free radical scavenging method by DPPH (2,2-diphenyl-1-picrylhydrazyl) assay. The DPPH is a stable free radical with maximal absorption at 517 nm and is reduced to a corresponding hydrazine when it reacting with hydrogen donors. […] DPPH solution (3 μg/ml) was prepared in methanol and DPPH (in 1:1) solution was used for blank reference. Four dilutions of different concentrations (25, 50, 75 and 100 μg/ml) of each synthesized compound and standard (ascorbic acid) were prepared in the methanol and 1 ml of each concentration was added to 1 ml of DPPH solution. The solution mixture was shaken vigorously and kept in dark place for 30 min at room temperature and absorbance was measured by UV at 517 nm. Percentage inhibition of Free radical DPPH was calculated as follows:1 %Inhibition=ABlank-ASample/ABlank×100 where, ABlank: absorbance of the blank reaction, ASample: absorbance of the test compound.

[3] = tested on: Aspergillus niger; experiment: Antifungal activity, tube dilution method (MIC); format: cell-based; settings: 168 h, read-out: Minimum inhibitory concentration, A. niger, tube dilution, 25 ± 1 °C, 7 days
Procedure: (§1) The in vitro antimicrobial activity of synthesized compounds was done by tube dilution method against Gram-positive bacteria: Staphylococcus aureus, Bacillus subtilis, Gram-negative bacteria: Escherichia coli, Klebsiella pneumonia, Salmonella typhi and fungal: Candida albicans and Aspergillus niger strains using cefadroxil and fluconazole as standard. Dilutions of test and standard compounds were prepared in double strength nutrient broth for bacterial strains and Sabouraud dextrose broth for fungal strains.

[4] = tested on: Candida albicans; experiment: Antifungal activity, tube dilution method (MIC); format: cell-based; settings: 48 h, read-out: Minimum inhibitory concentration, C. albicans, tube dilution, 37 ± 1 °C, 48 h
Procedure: as §1

[5] = tested on: Salmonella typhi; experiment: Antimicrobial activity, tube dilution method (MIC); format: cell-based; settings: 24 h; for MIC: Salmonella enterica, TYPHI, read-out: Minimum inhibitory concentration, S. typhi
Procedure: as §1

[6] = tested on: Bacillus subtilis; experiment: Antimicrobial activity, tube dilution method (MIC); format: cell-based; settings: 24 h
Procedure: as §1

[7] = tested on: Staphylococcus aureus; experiment: Antimicrobial activity, tube dilution method (MIC); format: cell-based; settings: 24 h, read-out: Minimum inhibitory concentration, S. aureus, tube dilution, 37 ± 1 °C, 24 h
Procedure: as §1

[8] = tested on: Escherichia coli; experiment: Antimicrobial activity, tube dilution method (MIC); format: cell-based; settings: 24 h
Procedure: as §1

[9] = tested on: Klebsiella pneumonia; experiment: Antimicrobial activity, tube dilution method (MIC); format: cell-based; settings: Klebsiella pneumoniae, 24 h
Procedure: as §1

[10] = read-out: Minimum inhibitory concentration, B. subtilis, tube dilution, 37 ± 1 °C, 24 h
[11] = read-out: Minimum inhibitory concentration, E. coli, tube dilution, 37 ± 1 °C, 24 h
[12] = read-out: Minimum inhibitory concentration, K. pneumonia, tube dilution, 37 ± 1 °C, 24 h
[13] = tube dilution, 37 ± 1 °C, read-out: Minimum inhibitory concentration, K. pneumonia

Row | SMILES | melting point | % inhibition (α-amylase), 25 μg/ml [1] | % inhibition (α-amylase), 50 μg/ml [1] | % inhibition (α-amylase), 75 μg/ml [1] | % inhibition (α-amylase), 100 μg/ml [1] | IC50 (antidiabetic activity, α-amylase) [1] | % inhibition (DPPH), 25 μg/ml [2] | % inhibition (DPPH), 50 μg/ml [2] | % inhibition (DPPH), 75 μg/ml [2] | % inhibition (DPPH), 100 μg/ml [2] | IC50 (antioxidant activity, DPPH) [2] | MIC [3] | MIC [4] | MIC [5] | MIC [6, 10] | MIC [7] | MIC [8, 11] | MIC [9, 12] | further results
1 | O=C1NC(=O)/C(=C\c2cccc(Cl)c2)S1 [Compound 14, 5-(3-Chlorobenzylidene)thiazolidiine-2,4-dione] | 137 to 140 °C |  |  |  |  |  |  |  |  |  |  |  |  |  |  |  |  |  | 
2 | COc1ccccc1C=C1SC(=O)NC1=O [Compound 15, 5-(2-Methoxybenzylidene)thiazolidine-2,4-dione] | 147 to 150 °C | 32.59% | 51.78% | 66.98% | 81.30% | 22.35 µg/mL (≈ 95 µM) | 33.51% | 43.98% | 77.21% | 98.67% | 43.25 µg/mL (≈ 184 µM) | 5.31 mM (≈ 1250 µg/mL) | 5.31 mM (≈ 1250 µg/mL) | 5.31 mM (≈ 1250 µg/mL) | 5.31 mM (≈ 1250 µg/mL) | 5.31 mM (≈ 1250 µg/mL) | 5.31 mM (≈ 1250 µg/mL) |  | 
3 | COc1cc(C=C2SC(=O)NC2=O)cc(OC)c1OC [Compound 10, 5-(3,4,5-Trimethoxybenzylidene)thiazolidine-2,4-dione] | 210 to 213 °C | 29.34% | 43.98% | 63.36% | 98.14% | 47.49 µg/mL (≈ 161 µM) | 28.61% | 39.67% | 59.75% | 86.70% | 43.44 µg/mL (≈ 147 µM) |  |  | 4.2 mM (≈ 1240 µg/mL) |  |  | 8.4 mM (≈ 2480 µg/mL) | 4.2 mM (≈ 1240 µg/mL) | Minimum inhibitory concentration, S. typhi ([5]; tube dilution, 37 ± 1 °C): 4.20 μΜ/ml
4 | O=C1NC(=O)C(=Cc2ccccc2O)S1 [Compound 17, 5-(2-Hydroxybenzylidene)thiazolidine-2,4-dione] |  | 23.67% | 48.56% | 65.46% | 93.17% | 48.48 µg/mL (≈ 219 µM) | 32.78% | 40.24% | 69.55% | 89.87% | 40.06 µg/mL (≈ 181 µM) | 5.65 mM (≈ 1250 µg/mL) | 5.65 mM (≈ 1250 µg/mL) | 5.65 mM (≈ 1250 µg/mL) |  | 5.65 mM (≈ 1250 µg/mL) | 5.65 mM (≈ 1250 µg/mL) |  | MIC ([6]; tube dilution, 37 ± 1 °C, read-out: Minimum inhibitory concentration, B. subtilis): 11.3 mM (≈ 2500 µg/mL); MIC [9, 13]: 11.3 mM (≈ 2500 µg/mL)
5 | O=C1NC(=O)C(=Cc2ccc([N+](=O)[O-])cc2)S1 [Compound 1, 5-(4-Nitrobenzylidene)thiazolidine-2,4-dione] |  | 22.65% | 35.79% | 55.52% | 88.68% | 54.35 µg/mL (≈ 217 µM) | 32.64% | 40.22% | 73.41% | 84.81% | 36.35 µg/mL (≈ 145 µM) | 4.9 mM (≈ 1230 µg/mL) | 4.9 mM (≈ 1230 µg/mL) | 4.9 mM (≈ 1230 µg/mL) | 9.9 mM (≈ 2480 µg/mL) | 4.9 mM (≈ 1230 µg/mL) | 4.9 mM (≈ 1230 µg/mL) | 9.9 mM (≈ 2480 µg/mL) | 
6 | COc1ccc(C=C2SC(=O)NC2=O)cc1 [Compound 12, 5-(4-methoxybenzylidene)thiazolidine-2,4-dione] |  | 27.77% | 53.23% | 62.27% | 79.43% | 27.63 µg/mL (≈ 117 µM) | 20.67% | 42.75% | 77.84% | 90.50% | 53.27 µg/mL (≈ 226 µM) | 5.31 mM (≈ 1250 µg/mL) | 5.31 mM (≈ 1250 µg/mL) | 5.31 mM (≈ 1250 µg/mL) | 10.6 mM (≈ 2490 µg/mL) | 10.6 mM (≈ 2490 µg/mL) | 5.31 mM (≈ 1250 µg/mL) | 10.6 mM (≈ 2490 µg/mL) | 
7 | O=C1NC(=O)C(=Cc2ccc(O)cc2)S1 [Compound 5, 5-(4-Hydroxybenzylidene)thiazolidine-2,4-dione] |  | 18.26% | 47.61% | 49.24% | 96.72% | 56.64 µg/mL (≈ 256 µM) | 35.79% | 39.78% | 62.02% | 85.47% | 31.10 µg/mL (≈ 141 µM) | 5.65 mM (≈ 1250 µg/mL) | 5.65 mM (≈ 1250 µg/mL) | 5.65 mM (≈ 1250 µg/mL) | 5.65 mM (≈ 1250 µg/mL) | 5.65 mM (≈ 1250 µg/mL) |  |  | MIC [9, 13]: 11.3 mM (≈ 2500 µg/mL); MIC ([8]; tube dilution, 37 ± 1 °C, read-out: Minimum inhibitory concentration, E. coli): 11.3 mM (≈ 2500 µg/mL)
8 | O=C1NC(=O)C(=C/C=C/c2ccccc2)S1 [Compound 20, 5-((E)-3-Phenylallylidene)thiazolidine-2,4-dione] |  | 34.73% | 45.98% | 68.34% | 88.45% | 31.62 µg/mL (≈ 137 µM) | 25.64% | 46.93% | 69.55% | 87.97% | 43.89 µg/mL (≈ 190 µM) | 5.4 mM (≈ 1250 µg/mL) | 5.4 mM (≈ 1250 µg/mL) | 5.4 mM (≈ 1250 µg/mL) | 5.4 mM (≈ 1250 µg/mL) | 5.4 mM (≈ 1250 µg/mL) | 5.4 mM (≈ 1250 µg/mL) | 10.8 mM (≈ 2500 µg/mL) | 
